We go through two molecules from patent publication US8097266B2, “Solvent systems for pour-on formulations for combating parasites” (Merial Limited, priority 2007, dated 2012).

The format of data set [1] is physicochemical. As to the method:
In addition to examination of solutions for clarity, aged samples (2 months@ 25° C.) were examined chromatographically for degradation.
In order to elucidate possible degradation components, solutions of active components were subjected to forced degradation conditions of acid, base, and peroxide at elevated temperature.
Samples containing ivermectin and clorsulon were prepared in acetonitrile and subjected to acid (a few drops of phosphoric acid), alkaline (a few drops of 1N sodium hydroxide) and peroxide (a small amount of t-butyl peroxide or hydrogen peroxide) degradation conditions. Samples were first analyzed for signs of degradation after a few days at ambient temperature. If, after this time there were no signs of degradation the samples were further ‘stressed’ by storage at 40° C.

Data set [2] can be described thus: Preliminary stability of Table 3 formulations at 50° C. The data set is classed as physicochemical. Particulars: addition of glycerol formal. As to the method: Larger batches (100 mL) of formulations were made for use in preliminary stability studies.
Eprinomectin was also included in the formulation studies at the same end product concentration as ivermectin (0.5% w/v). The formulations shown in Table 3 were monitored for stability.
In order to evaluate the stability of formulations, analytical methods (described below) were developed to assay each active ingredient and monitor any degradation.
This HPLC assay was developed as an external standardization method which involves volumetric dilution of an accurately weighed amount of standard material and sample. The chromatographic method comprises an isocratic elution and detection of analyte components using the run parameters below: […]

For the molecule `Nc1cc(C(Cl)=C(Cl)Cl)c(S(N)(=O)=O)cc1S(N)(=O)=O` [clorsulon, 4-amino-6-trichloroethenyl-1,3-benzene disulfonamide], in data set [1], the “Relative stability of the two active compounds” value is “more stable”.

Turning to eprinomectin, the “Stabilization of eprinomectin in formulation” value in data set [2] is on record as “stabilized by the addition of glycerol formal”.
